One block for each molecule: values may come before it.
Columns and labels:
[1] = Oral Bioavailability in rat; assay type: ADME, organism-based; details: in vivo
[2] = Half life in rat; assay type: ADME; details: in vivo
[3] = Half life in mouse at 1 mg/kg, iv measured after 0.083 hrs by liquid chromatography tandem mass spectrometry analysis; assay type: ADME, organism-based; details: in vivo
[4] = Oral bioavailability in rat at 2 mg/kg measured at 0.25 to 168 hrs by liquid chromatography tandem mass spectrometry analysis; assay type: ADME, organism-based; details: in vivo, time 0.25-168 hrs
[5] = Half life in rat at 1 mg/kg, iv measured after 0.083 hrs by liquid chromatography tandem mass spectrometry analysis; assay type: ADME, organism-based; details: in vivo
[6] = Clearance in rat at 1 mg/kg, iv measured after 0.083 hrs by liquid chromatography tandem mass spectrometry analysis; assay type: ADME, organism-based; details: in vivo
[7] = Half life in dog at 0.5 mg/kg, iv measured after 0.083 hrs by liquid chromatography tandem mass spectrometry analysis; assay type: ADME, organism-based, Canis lupus familiaris; details: in vivo
[8] = Half life in monkey at 0.5 mg/kg, iv measured after 0.083 hrs by liquid chromatography tandem mass spectrometry analysis; assay type: ADME, organism-based, Macaca mulatta; details: rhesus monkey, in vivo
[9] = AUC in iv dosed rat; assay type: ADME, organism-based; set-up: route iv; details: in vivo
[10] = Half life in iv dosed rat; assay type: ADME, organism-based; details: in vivo
[11] = Tmax in iv dosed rat; assay type: ADME, organism-based; details: in vivo
[12] = Cmax in iv dosed rat; assay type: ADME, organism-based; set-up: route iv; details: in vivo
[13] = Bioavilability in iv dosed rat; assay type: ADME, organism-based; details: in vivo
[14] = Oral bioavailability in Sprague-Dawley rat at 5 mg/kg measured at 0.083 to […] by Liquid chromatography coupled with tandem mass spectrometry analysis; assay type: ADME, organism-based; details: in vivo, time 0.083-0.25 hrs
[15] = Half life in Sprague-Dawley rat at 5 mg/kg, po measured at 0.083 to […] by Liquid chromatography coupled with tandem mass spectrometry analysis; assay type: ADME, organism-based; details: in vivo, time 0.083-0.25 hrs
[16] = Oral bioavailability in rat at 1 mg/kg measured after 24 hrs by LC/MS/MS analysis; assay type: ADME, organism-based; details: in vivo
[17] = AUC in rat at 1 mg/kg, iv measured after 24 hrs by LC/MS/MS analysis; assay type: ADME, organism-based; set-up: dose 1 mg/kg, time 24 hrs, route iv; details: in vivo
[18] = Tmax in Cynomolgus monkey at 10 mg/kg, po measured after 24 hrs by LC/MS/MS analysis; assay type: ADME, organism-based, Macaca fascicularis; details: in vivo
[19] = Volume of distribution in Cynomolgus monkey at 10 mg/kg, po measured after 24 hrs by LC/MS/MS analysis; assay type: ADME, organism-based, Macaca fascicularis; details: in vivo
[20] = Cmax in rat at 10 mg/kg, po measured after 24 hrs by LC/MS/MS analysis; assay type: ADME, organism-based; set-up: dose 10 mg/kg, time 24 hrs, route po; details: in vivo
[21] = Half life in rat at 1 mg/kg, iv measured after 24 hrs by LC/MS/MS analysis; assay type: ADME, organism-based; details: in vivo
[22] = Volume of distribution in dog at 3 mg/kg, po measured after 24 hrs by LC/MS/MS analysis; assay type: ADME, organism-based, Canis lupus familiaris; details: in vivo
[23] = Half life in dog at 3 mg/kg, po measured after 24 hrs by LC/MS/MS analysis; assay type: ADME, organism-based, Canis lupus familiaris; details: in vivo
[24] = Clearance in Cynomolgus monkey at 10 mg/kg, po measured after 24 hrs by LC/MS/MS analysis; assay type: ADME, organism-based, Macaca fascicularis; details: in vivo
[25] = Tmax in dog at 3 mg/kg, po measured after 24 hrs by LC/MS/MS analysis; assay type: ADME, organism-based, Canis lupus familiaris; details: in vivo
[26] = Volume of distribution in rat at 1 mg/kg, iv measured after 24 hrs by LC/MS/MS analysis; assay type: ADME, organism-based; details: in vivo
[27] = AUC in rat at 10 mg/kg, po measured after 24 hrs by LC/MS/MS analysis; assay type: ADME, organism-based; set-up: dose 10 mg/kg, time 24 hrs, route po; details: in vivo
[28] = Oral bioavailability in dog at 3 mg/kg measured after 24 hrs by LC/MS/MS analysis; assay type: ADME, organism-based, Canis lupus familiaris; details: in vivo
[29] = Tmax in rat at 10 mg/kg, po measured after 24 hrs by LC/MS/MS analysis; assay type: ADME, organism-based; details: in vivo
[30] = Oral bioavailability in rat at 10 mg/kg measured after 24 hrs by LC/MS/MS analysis; assay type: ADME, organism-based; details: in vivo
[31] = Oral bioavailability in Cynomolgus monkey at 10 mg/kg measured after 24 hrs by LC/MS/MS analysis; assay type: ADME, organism-based, Macaca fascicularis; details: in vivo
[32] = AUC in dog at 3 mg/kg, po measured after 24 hrs by LC/MS/MS analysis; assay type: ADME, organism-based, Canis lupus familiaris; set-up: dose 3 mg/kg, time 24 hrs, route po; details: in vivo
[33] = Cmax in Cynomolgus monkey at 10 mg/kg, po measured after 24 hrs by LC/MS/MS analysis; assay type: ADME, organism-based, Macaca fascicularis; set-up: dose 10 mg/kg, time 24 hrs, route po; details: in vivo
[34] = Clearance in rat at 1 mg/kg, iv measured after 24 hrs by LC/MS/MS analysis; assay type: ADME, organism-based; details: in vivo
[35] = Half life in rat at 10 mg/kg, po measured after 24 hrs by LC/MS/MS analysis; assay type: ADME, organism-based; details: in vivo
[36] = AUC in Cynomolgus monkey at 10 mg/kg, po measured after 24 hrs by LC/MS/MS analysis; assay type: ADME, organism-based, Macaca fascicularis; set-up: dose 10 mg/kg, time 24 hrs, route po; details: in vivo
[37] = Cmax in dog at 3 mg/kg, po measured after 24 hrs by LC/MS/MS analysis; assay type: ADME, organism-based, Canis lupus familiaris; set-up: time 24 hrs, dose 3 mg/kg, route po; details: in vivo
[38] = Clearance in dog at 3 mg/kg, po measured after 24 hrs by LC/MS/MS analysis; assay type: ADME, organism-based, Canis lupus familiaris; details: in vivo
[39] = Half life in Cynomolgus monkey at 10 mg/kg, po measured after 24 hrs by LC/MS/MS analysis; assay type: ADME, organism-based, Macaca fascicularis; details: in vivo

Compound: CS(=O)(=O)Nc1cccc(NC(=O)CN2CCN(C(=O)C[C@H](N)Cc3ccccc3F)[C@H](Cc3ccccc3)C2)c1
- bioavailability [1]: < 1%

Compound: N[C@@H](CC(=O)N1CCSC1)Cc1cc(F)c(F)cc1F
- bioavailability [1]: 3%
- half-life [2]: 1.1 h

Compound: CC#CCn1c(N2CCC[C@@H](N)C2)nc2c1c(=O)n(Cc1nc3cc(F)ccc3s1)c(=O)n2C
- half-life [2]: 7.3 h

Compound: N[C@H]1C[C@@H](N2CC3=C(C2)CS(=O)(=O)C3)CO[C@@H]1c1cc(F)ccc1F
- half-life [3]: 44.4 h
- bioavailability [4]: 91%
- half-life [5]: 28 h
- clearance [6]: 19 mL/min/kg
- half-life [7]: 52.8 h
- half-life [8]: 61.1 h

Compound: Cn1c(=O)cc(N2CCC[C@@H](N)C2)n(Cc2ccccc2C#N)c1=O [ALOGLIPTIN]
- bioavailability [16]: 86%
- AUC at 24 h [17]: 260 ng·h/mL
- Tmax [18]: 1 h
- Vd [19]: 2.6 L/kg
- Cmax [20]: 393 ng/mL
- half-life [21]: 1.4 h
- Vd [22]: 3.5 L/kg
- half-life [23]: 3 h
- CL/F [24]: 8.8 mL/min/kg
- Tmax [25]: 0.4 h
- Vd [26]: 3.5 L/kg
- AUC at 24 h [27]: 1200 ng·h/mL
- bioavailability [28]: 68%
- Tmax [29]: 2.3 h
- bioavailability [30]: 45%
- bioavailability [31]: 87%
- AUC at 24 h [32]: 1600 ng·h/mL
- Cmax [33]: 3210 ng/mL
- clearance [34]: 49 mL/min/kg
- half-life [35]: 2.8 h
- AUC at 24 h [36]: 16600 ng·h/mL
- Cmax [37]: 447 ng/mL
- CL/F [38]: 23 mL/min/kg
- half-life [39]: 5.6 h

More lines, now with the values ahead:

- AUC [9]: 3700 ng·h/mL
- half-life [10]: 25.4 h
- Tmax [11]: 5.3 h
- Cmax [12]: 119 ng/mL
- bioavailability [1]: 71%
- half-life [2]: 25.4 h
- bioavailability [13]: 71%
Compound: N[C@H]1C[C@@H](N2Cc3nn4c(C(F)(F)F)cc(C(F)(F)F)nc4c3C2)CO[C@@H]1c1cc(F)ccc1F

- bioavailability [14]: 94%
- half-life [15]: 16.4 h
Compound: N#Cc1ccc(F)cc1Cn1c(N2CCC[C@@H](N)C2)nc2cc(-c3cccnc3)sc2c1=O

Source: ChEMBL document CHEMBL5365448, “Development of Long-Acting Dipeptidyl Peptidase-4 Inhibitors: Structural Evolution and Long-Acting Determinants” (J Med Chem, 2023)
